Measured values: patent US20050288185A1, “Substituted phenyluracils” (priority 2002, published 2005)

Key:
[1] = log P determination by HPLC (reversed-phase C18), EEC Directive 79/831 Annex V.A8; type: physicochemical; conditions: reversed-phase C18 HPLC column; pH 2.3; HPLC reversed-phase C18, 43° C.
Protocol: The log P values given in the table were determined in accordance with EEC Directive 79/831 Annex V.A8 by HPLC (High Performance Liquid Chromatography) using a reversed-phase column (C 18). Temperature: 43° C. (a) Mobile phases for the determination in the acidic range: 0.1% aqueous phosphoric acetonitrile; linear gradient from 10% acetonitrile to 90% acetonitrile—the sponding measurement results in Table 1 are marked ^a). (b) Mobile phases for the determination in the neutral range: 0.01 molar aqueous phosphate buffer solution, acetonitrile; linear gradient from 10% acetonitrile to 90% acetonitrile—the corresponding measurement results in Table 1 are marked^b). Calibration was carried out using unbranched alkan-2-ones (with 3 to 16 carbon atoms) with known log P values (determination of the log P values by the retention times using linear interpolation between two successive alkanones).

[2] = test system: weeds; experiment: Pre-emergence test (Example A), activity against weeds; type: in vivo; conditions: soil sprayed 24 hours after sowing, rated after three weeks
Text: (§1) Solvent: 5 parts by weight of acetone
(§2) Emulsifier: 1 part by weight of alkylaryl polyglycol ether
Seeds of the test plants are sown in normal soil.
(§3) After three weeks, the degree of damage to the plants is rated in % damage in comparison to the development of the untreated control.

[3] = test system: weeds; experiment: Post-emergence test (Example B), activity against weeds; type: in vivo; conditions: test plants 5-15 cm sprayed, rated after three weeks
Text: as §1, §2, §3

Row | chromatographic logP [1] | Structure (SMILES) | activity against weeds (degree of damage) [2] | activity against weeds (degree of damage) [3]
1 | 3 | COC(=O)c1ccoc1COc1cc(-n2c(=O)cc(C(F)(F)F)n(N)c2=O)c(F)cc1Br [Example 3, methyl 2-[2-bromo-5-(3-amino-2,6-dioxo-4-trifluoromethyl-3,6-dihydro-2H-pyrimidin-1-yl)-4-fluorophenoxymethyl]furan-3-carboxylate] | very strong activity against weeds | very strong activity against weeds
2 | 3.34 | COC(=O)c1occc1COc1cc(-n2c(=O)cc(C(F)(F)F)n(C)c2=O)c(F)cc1Br [Example 2, methyl 3-[2-bromo-5-(2,6-dioxo-3-methyl-4-trifluoromethyl-3,6-dihydro-2H-pyrimidin-1-yl)-4-fluorophenoxymethyl]furan-2-carboxylate] | very strong activity against weeds | very strong activity against weeds
